Experimental data from patent publication US20240208992A1, “MACROCYCLES AS CFTR MODULATORS” (Idorsia Pharmaceuticals Ltd, priority 2021, published 2024).

Target: human F508del-CFTR (Homo sapiens, UniProt P13569, DEL508-508)
Assay: F508del-CFTR cell surface expression (corrector activity), DiscoveRx ß-galactosidase complementation chemiluminescence assay in recombinant U2OS cell line;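 also: U2OS cells co-expressing ProLink-tagged F508del-CFTR and a membrane-anchored enzyme acceptor, where more surface CFTR restores β-galactosidase activity measured by chemiluminescence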
Conditions: for EC50: EC50, F508del-CFTR cell surface expression, geomean values; for Emax: U2OS, arithmetic mean values
[1] = U2OS cells, 16h compound incubation
[2] = in relation to Emax of corrector lumacaftor (=100%)
[3] = U2OS cell line, 16h compound incubation
[4] = in relation to the Emax of the corrector lumacaftor (=100%), U2OS cell line, 16h compound incubation

Sequence of human F508del-CFTR (P13569 with tags, fused parts or gaps DEL508-508): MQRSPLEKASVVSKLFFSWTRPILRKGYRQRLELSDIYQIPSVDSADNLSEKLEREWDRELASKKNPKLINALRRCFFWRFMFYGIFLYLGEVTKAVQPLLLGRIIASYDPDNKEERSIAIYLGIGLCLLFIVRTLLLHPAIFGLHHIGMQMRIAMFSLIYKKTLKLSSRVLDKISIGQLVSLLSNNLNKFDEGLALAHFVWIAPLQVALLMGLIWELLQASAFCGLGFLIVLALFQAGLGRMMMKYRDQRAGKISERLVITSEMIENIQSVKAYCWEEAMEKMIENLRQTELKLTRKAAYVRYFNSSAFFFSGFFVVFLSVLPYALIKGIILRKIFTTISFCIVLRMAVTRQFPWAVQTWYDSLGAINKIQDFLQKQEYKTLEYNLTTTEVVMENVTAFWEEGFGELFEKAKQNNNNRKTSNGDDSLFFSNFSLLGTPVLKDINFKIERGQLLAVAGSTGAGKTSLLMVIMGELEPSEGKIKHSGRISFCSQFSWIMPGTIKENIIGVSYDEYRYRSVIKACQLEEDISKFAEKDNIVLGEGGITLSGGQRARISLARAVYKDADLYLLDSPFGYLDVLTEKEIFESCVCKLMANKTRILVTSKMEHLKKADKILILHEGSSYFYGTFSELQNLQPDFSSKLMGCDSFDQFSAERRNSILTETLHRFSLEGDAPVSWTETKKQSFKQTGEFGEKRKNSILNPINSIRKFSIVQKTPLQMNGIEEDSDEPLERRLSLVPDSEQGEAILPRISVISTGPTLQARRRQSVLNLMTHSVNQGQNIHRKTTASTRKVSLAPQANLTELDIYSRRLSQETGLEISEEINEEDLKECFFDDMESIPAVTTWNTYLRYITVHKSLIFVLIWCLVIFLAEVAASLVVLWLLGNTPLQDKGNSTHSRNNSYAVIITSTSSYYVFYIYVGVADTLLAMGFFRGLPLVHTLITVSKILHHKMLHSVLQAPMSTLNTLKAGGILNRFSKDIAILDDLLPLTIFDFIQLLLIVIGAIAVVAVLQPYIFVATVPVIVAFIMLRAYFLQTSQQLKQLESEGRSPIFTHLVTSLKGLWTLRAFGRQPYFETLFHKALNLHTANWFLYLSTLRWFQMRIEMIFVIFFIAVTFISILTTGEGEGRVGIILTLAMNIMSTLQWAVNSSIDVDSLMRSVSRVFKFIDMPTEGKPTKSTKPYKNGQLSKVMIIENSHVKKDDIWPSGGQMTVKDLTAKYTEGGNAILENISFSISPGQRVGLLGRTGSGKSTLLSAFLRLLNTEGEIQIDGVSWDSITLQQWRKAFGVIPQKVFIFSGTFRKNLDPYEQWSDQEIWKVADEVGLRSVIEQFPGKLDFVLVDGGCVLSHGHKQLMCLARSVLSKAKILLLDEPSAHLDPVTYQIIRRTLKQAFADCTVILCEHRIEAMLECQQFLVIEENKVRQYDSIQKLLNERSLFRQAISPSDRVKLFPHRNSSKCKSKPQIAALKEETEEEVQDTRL

| SMILES | EC50 [1] [µM] | Emax [2] [%] | EC50 [3] [µM] | Emax [4] [%] |
| --- | --- | --- | --- | --- |
| Cc1cc(CCNC(=O)[C@@H]2CC(=O)N(C)[C@@H](CC(C)C)C(=O)N(C)[C@H](C3CCCC3)C(=O)N[C@H](Cc3ccccc3)COc3cnc4ccccc4c3C(=O)N2)on1 [Example 710, (3S,7S,10R,13R)-13-benzyl-10-cyclopentyl-7-isobutyl-6,9-dimethyl-N-(2-(3-methylisoxazol-5-yl)ethyl)-1,5,8,11-tetraoxo-1,2,3,4,5,6,7,8,9,10,11,12,13,14-tetradecahydro-[1]oxa[4,7,10,14]tetraazacycloheptadecino[17,16-c]quinoline-3-carboxamide] | 0.149 | 280 |  |  |
| Cc1nc2ccc3c(c2o1)C(=O)N[C@H](C(=O)NCCc1cccc(OC(F)F)c1)CC(=O)N(C)[C@@H](CC(C)C)C(=O)N1CCN(CC2CC2)C[C@@H]1C(=O)N[C@H](Cc1ccccc1)CO3 [Example 426, (8S,12S,18aR,21R)-21-benzyl-17-(cyclopropylmethyl)-N-(3-(difluoromethoxy)phenethyl)-12-isobutyl-4,11-dimethyl-6,10,13,19-tetraoxo-6,7,8,9,10,11,12,13,16,17,18,18a,19,20,21,22-hexadecahydro-15H-oxazolo[4′,5′:5,6]benzo[1,2-p]pyrazino[2,1-f][1]oxa[4,7,10,14]tetraazacycloheptadecine-8-carboxamide] | 0.269 | 217 |  |  |
| Cc1nc2ccc3c(c2o1)C(=O)N[C@H](C(=O)NCCc1nc2c(s1)CCC2)CC(=O)N(C)[C@@H](CC(C)C)C(=O)N1CCN(C2CC2)C[C@@H]1C(=O)N[C@H](Cc1ccccc1)CO3 [Example 420, (8S,12S,18aR,21R)-21-benzyl-17-cyclopropyl-N-(2-(5,6-dihydro-4H-cyclopenta[d]thiazol-2-yl)ethyl)-12-isobutyl-4,11-dimethyl-6,10,13,19-tetraoxo-6,7,8,9,10,11,12,13,16,17,18,18a,19,20,21,22-hexadecahydro-15H-oxazolo[4′,5′:5,6]benzo[1,2-p]pyrazino[2,1-f][1]oxa[4,7,10,14]tetraazacycloheptadecine-8-carboxamide] | 0.437 | 231 |  |  |
| Cc1cc(CCNC(=O)[C@@H]2CC(=O)N(C)[C@@H](CC3CCCC3)C(=O)N3CCOC[C@@H]3C(=O)N[C@H](Cc3ccccc3)COc3ccc4nc(C)oc4c3C(=O)N2)on1 [Example 435] | 0.895 | 119 |  |  |
| CC(C)C[C@H]1C(=O)N2CCCC[C@@H]2C(=O)N[C@H](Cc2ccccc2)COc2cnc3ccccc3c2C(=O)N[C@H](C(=O)NCCc2cccc(-c3ncccn3)c2)CC(=O)N1C [Example 123, (9S,13S,19aR,22R)-22-benzyl-13-isobutyl-12-methyl-7,11,14,20-tetraoxo-N-(3-(pyrimidin-2-yl)phenethyl)-7,8,9,10,11,12,13,14,17,18,19,19a,20,21,22,23-hexadecahydro-16H-pyrido[2′,1′:6,7][1]oxa[4,7,10,14]tetraazacycloheptadecino[17,16-c]quinoline-9-carboxamide] |  |  | 0.873 | 280 |
| CC(C)C[C@H]1C(=O)N(C)CC(=O)N[C@H](Cc2ccccc2)COc2cnc3ccccc3c2C(=O)N[C@H](C(=O)NCCc2ccc3c(c2)OCO3)CC(=O)N1C [Example 318, (3S,7S,13R)-N-(2-(benzo[d][1,3]dioxol-5-yl)ethyl)-13-benzyl-7-isobutyl-6,9-dimethyl-1,5,8,11-tetraoxo-1,2,3,4,5,6,7,8,9,10,11,12,13,14-tetradecahydro-[1]oxa[4,7,10,14]tetraazacycloheptadecino[17,16-c]quinoline-3-carboxamide] |  |  | 0.679 | 295 |
| COc1cccc(CCNC(=O)[C@@H]2CC(=O)N(C)[C@@H](CC(C)C)C(=O)N3CCN(C(=O)c4cnccn4)C[C@@H]3C(=O)N[C@H](Cc3ccccc3)COc3ccc4ccccc4c3C(=O)N2)c1 [Example 753, (4aR,7R,18S,22S)-7-benzyl-22-isobutyl-N-(3-methoxyphenethyl)-21-methyl-5,16,20,23-tetraoxo-3-(pyrazine-2-carbonyl)-2,3,4,4a,5,6,7,8,16,17,18,19,20,21,22,23-hexadecahydro-1H-naphtho[1,2-p]pyrazino[2,1-f][1]oxa[4,7,10,14]tetraazacycloheptadecine-18-carboxamide] | 0.43 | 264 |  |  |
| COc1cccc(CCNC(=O)[C@@H]2CC(=O)N(C)[C@@H](CC(C)C)C(=O)N(C[C@@H]3CCCCO3)CC(=O)N[C@H](Cc3ccccc3)COc3ccc4ccccc4c3C(=O)N2)c1 (racemic) [Example 165, (3RS,7S,13R)-13-benzyl-7-isobutyl-N-(3-methoxyphenethyl)-6-methyl-1,5,8,11-tetraoxo-9-(((S)-tetrahydro-2H-pyran-2-yl)methyl)-1,2,3,4,5,6,7,8,9,10,11,12,13,14-tetradecahydronaphtho[1,2-p][1]oxa[4,7,10,14]tetraazacycloheptadecine-3-carboxamide] |  |  | 0.287 | 149 |
| COc1nccc2c1C(=O)N[C@H](C(=O)NCCc1nc(-c3ccccc3)no1)CC(=O)N(C)[C@@H](CC(C)C)C(=O)N1CCCC[C@@H]1C(=O)N[C@H](Cc1ccccc1)CO2 [Example 182, (7S,11S,17aR,20R)-20-benzyl-11-isobutyl-4-methoxy-10-methyl-5,9,12,18-tetraoxo-N-(2-(3-phenyl-1,2,4-oxadiazol-5-yl)ethyl)-5,6,7,8,9,10,11,12,15,16,17,17a,18,19,20,21-hexadecahydro-14H-dipyrido[2,1-f:3′,4′-p][1]oxa[4,7,10,14]tetraazacycloheptadecine-7-carboxamide] |  |  | 0.406 | 270 |
| CC(C)C[C@H]1C(=O)N(C)C2(CC2)C(=O)N[C@H](Cc2ccccc2)COc2cnc3ccccc3c2C(=O)N[C@H](C(=O)NCCc2cc(C3CC3)no2)CC(=O)N1C [Example 476, (3′S,7′S,13′R)-13′-benzyl-N-(2-(3-cyclopropylisoxazol-5-yl)ethyl)-7′-isobutyl-6′,9′-dimethyl-1′,5′,8′,11′-tetraoxo-2′,3′,4′,5′,6′,7′,8′,9′,11′,12′,13′,14′-dodecahydro-1′H-spiro[cyclopropane-1,10′-[1]oxa[4,7,10,14]tetraazacycloheptadecino[17,16-c]quinoline]-3′-carboxamide] | 0.333 | 344 |  |  |
| COc1cc(CCNC(=O)[C@@H]2CC(=O)N(C)[C@@H](CC(C)C)C(=O)N(C)[C@H](C)C(=O)N[C@H](Cc3ccccc3)COc3ccnc(OC)c3C(=O)N2)on1 [Example 771, (3R,6R,9S,13S)-3-benzyl-9-isobutyl-16-methoxy-N-(2-(3-methoxyisoxazol-5-yl)ethyl)-6,7,10-trimethyl-5,8,11,15-tetraoxo-2,3,4,5,6,7,8,9,10,11,12,13,14,15-tetradecahydropyrido[3,4-p][1]oxa[4,7,10,14]tetraazacycloheptadecine-13-carboxamide] | 0.597 | 299 |  |  |
| CC(C)C[C@H]1C(=O)N(CCC2CCCCC2)CC(=O)N[C@H](Cc2ccccc2)COc2cnc3ccccc3c2C(=O)N[C@H](C(=O)NCCc2ccc3c(c2)OCO3)CC(=O)N1C [Example 610, (3S,7S,13R)-N-(2-(benzo[d][1,3]dioxol-5-yl)ethyl)-13-benzyl-9-(2-cyclohexylethyl)-7-isobutyl-6-methyl-1,5,8,11-tetraoxo-1,2,3,4,5,6,7,8,9,10,11,12,13,14-tetradecahydro-[1]oxa[4,7,10,14]tetraazacycloheptadecino[17,16-c]quinoline-3-carboxamide] | 0.089 | 311 |  |  |
| COCCCN1C(=O)[C@H](CC(C)C)N(C)C(=O)C[C@@H](C(=O)NCCc2cccc(OC)c2)NC(=O)c2c(ccc3ccccc23)OC[C@@H](Cc2ccccc2)NC(=O)[C@H]1C [Example 431, (3S,7S,10R,13R)-13-benzyl-7-isobutyl-N-(3-methoxyphenethyl)-9-(3-methoxypropyl)-6,10-dimethyl-1,5,8,11-tetraoxo-1,2,3,4,5,6,7,8,9,10,11,12,13,14-tetradecahydronaphtho[1,2-p][1]oxa[4,7,10,14]tetraazacycloheptadecine-3-carboxamide] | 0.208 | 281 |  |  |
| Cc1noc(C)c1CCNC(=O)[C@@H]1CC(=O)N(C)[C@@H](CC(C)C)C(=O)N2CCOC[C@@H]2C(=O)N[C@H](Cc2ccccc2)COc2ccc3ccccc3c2C(=O)N1 [Example 43, (4aR,7R,18S,22S)-7-benzyl-N-(2-(3,5-dimethylisoxazol-4-yl)ethyl)-22-isobutyl-21-methyl-5,16,20,23-tetraoxo-1,2,4,4a,5,6,7,8,16,17,18,19,20,21,22,23-hexadecahydronaphtho[1,2-p][1,4]oxazino[3,4-f][1]oxa[4,7,10,14]tetraazacycloheptadecine-18-carboxamide] |  |  | 0.862 | 137 |
| Cc1noc2c3c(ccc12)OC[C@@H](Cc1ccccc1)NC(=O)[C@H]1CCCCN1C(=O)[C@H](CC(C)C)N(C)C(=O)C[C@@H](C(=O)NCCc1c(F)cccc1F)NC3=O [Example 634, (8S,12S,18aR,21R)-21-benzyl-N-(2,6-difluorophenethyl)-12-isobutyl-3,11-dimethyl-6,10,13,19-tetraoxo-6,7,8,9,10,11,12,13,16,17,18,18a,19,20,21,22-hexadecahydro-15H-isoxazolo[4′,5′:5,6]benzo[1,2-p]pyrido[2,1-f][1]oxa[4,7,10,14]tetraazacycloheptadecine-8-carboxamide] | 0.173 | 178 |  |  |
